# The source made the active and inactive calls.
# Key:
# Assay type in all cases: functional
# [1] = target: ALK tyrosine kinase receptor (Homo sapiens, UniProt Q9UM73);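 further: ALK tested as one member of a kinase panel screen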
# [2] = target: Cell division cycle 7-related protein kinase (Homo sapiens, UniProt O00311);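 further: value obtained from a kinome-wide kinase panel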
# [3] = target: T1, Apoptotic protease-activating factor 1 (Homo sapiens, UniProt O14727); assay: SAR analysis of small molecule Inhibitors of Apaf-1 in a Fluorescent assay - set 2.; conditions: read-out: IC50_Mean
# T1 sequence (O14727 whole entry): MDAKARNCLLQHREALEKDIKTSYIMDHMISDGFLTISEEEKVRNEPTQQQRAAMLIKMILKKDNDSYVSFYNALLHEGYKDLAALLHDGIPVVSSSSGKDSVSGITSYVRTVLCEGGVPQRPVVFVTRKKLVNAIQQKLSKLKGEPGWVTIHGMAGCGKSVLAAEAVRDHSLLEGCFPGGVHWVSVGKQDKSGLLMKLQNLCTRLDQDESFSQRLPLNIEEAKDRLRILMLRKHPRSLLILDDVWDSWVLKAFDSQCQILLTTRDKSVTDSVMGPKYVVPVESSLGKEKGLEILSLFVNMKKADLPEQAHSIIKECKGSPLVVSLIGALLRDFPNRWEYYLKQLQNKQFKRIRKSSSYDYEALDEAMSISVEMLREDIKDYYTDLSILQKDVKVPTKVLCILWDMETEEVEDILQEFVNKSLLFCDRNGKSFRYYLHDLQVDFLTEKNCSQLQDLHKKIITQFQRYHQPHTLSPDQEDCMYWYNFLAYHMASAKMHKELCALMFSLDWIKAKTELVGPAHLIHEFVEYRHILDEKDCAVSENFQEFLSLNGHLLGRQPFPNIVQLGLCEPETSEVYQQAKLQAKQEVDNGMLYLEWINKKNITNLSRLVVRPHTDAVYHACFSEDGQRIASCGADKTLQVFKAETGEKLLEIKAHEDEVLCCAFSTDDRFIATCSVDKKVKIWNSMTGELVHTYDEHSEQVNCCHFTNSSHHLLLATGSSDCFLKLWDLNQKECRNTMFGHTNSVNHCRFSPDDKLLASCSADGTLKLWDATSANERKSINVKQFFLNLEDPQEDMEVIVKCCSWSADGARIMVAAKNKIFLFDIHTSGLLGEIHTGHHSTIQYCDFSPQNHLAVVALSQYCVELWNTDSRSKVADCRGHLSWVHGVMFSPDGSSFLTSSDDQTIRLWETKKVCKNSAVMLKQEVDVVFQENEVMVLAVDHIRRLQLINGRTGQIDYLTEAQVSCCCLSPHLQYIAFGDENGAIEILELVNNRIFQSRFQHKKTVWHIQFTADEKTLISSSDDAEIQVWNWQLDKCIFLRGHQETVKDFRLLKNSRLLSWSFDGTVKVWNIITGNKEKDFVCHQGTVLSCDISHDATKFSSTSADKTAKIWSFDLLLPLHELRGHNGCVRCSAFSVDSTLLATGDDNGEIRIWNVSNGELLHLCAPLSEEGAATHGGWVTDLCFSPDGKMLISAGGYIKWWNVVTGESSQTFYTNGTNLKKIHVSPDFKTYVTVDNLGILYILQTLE
# [4] = SAR analysis of small molecule inhibitors of Apaf-1 using a LZ-Caspase-9/Caspase-3 Fluorescent Selectivity assay - Set 2.; conditions: read-out: IC50_Mean
# [5] = target: Vascular endothelial growth factor receptor 2 (Homo sapiens, UniProt P35968)
# Aurora kinase A = Aurora kinase A (Homo sapiens, UniProt O14965);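 further: value from the Navigating the Kinome kinase panel profiling, panel entry STK6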
# Aurora kinase B = Aurora kinase B (Homo sapiens, UniProt Q96GD4)
# [6] = intracellular Trypanosoma cruzi inhibitors in host cells – cell-based, plate reader, cherry-pick samples, set 3, dose response (AID 651818);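 further: compounds incubated with infected cells for about four days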
# [7] = target: Protein disulfide-isomerase (Homo sapiens, UniProt P07237); assay: PDI inhibitors, insulin aggregation turbidity, dose response, biochemical, absorbance, cherry-picked samples (AID 602350)
# Sequence of Protein disulfide-isomerase (P07237 whole entry): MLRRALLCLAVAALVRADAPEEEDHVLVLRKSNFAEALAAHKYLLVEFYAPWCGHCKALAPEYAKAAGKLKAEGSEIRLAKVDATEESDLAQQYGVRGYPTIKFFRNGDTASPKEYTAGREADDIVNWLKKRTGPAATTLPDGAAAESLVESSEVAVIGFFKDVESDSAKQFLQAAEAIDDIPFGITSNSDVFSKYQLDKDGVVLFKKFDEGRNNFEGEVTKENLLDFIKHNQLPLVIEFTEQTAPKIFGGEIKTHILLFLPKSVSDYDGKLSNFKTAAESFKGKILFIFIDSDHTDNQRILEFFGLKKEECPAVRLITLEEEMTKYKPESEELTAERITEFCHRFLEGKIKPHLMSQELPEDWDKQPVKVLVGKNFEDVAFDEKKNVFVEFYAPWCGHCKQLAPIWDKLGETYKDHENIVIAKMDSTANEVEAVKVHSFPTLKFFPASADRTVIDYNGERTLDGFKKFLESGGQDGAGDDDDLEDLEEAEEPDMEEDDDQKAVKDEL
# Sequence of Cell division cycle 7-related protein kinase (O00311 whole entry): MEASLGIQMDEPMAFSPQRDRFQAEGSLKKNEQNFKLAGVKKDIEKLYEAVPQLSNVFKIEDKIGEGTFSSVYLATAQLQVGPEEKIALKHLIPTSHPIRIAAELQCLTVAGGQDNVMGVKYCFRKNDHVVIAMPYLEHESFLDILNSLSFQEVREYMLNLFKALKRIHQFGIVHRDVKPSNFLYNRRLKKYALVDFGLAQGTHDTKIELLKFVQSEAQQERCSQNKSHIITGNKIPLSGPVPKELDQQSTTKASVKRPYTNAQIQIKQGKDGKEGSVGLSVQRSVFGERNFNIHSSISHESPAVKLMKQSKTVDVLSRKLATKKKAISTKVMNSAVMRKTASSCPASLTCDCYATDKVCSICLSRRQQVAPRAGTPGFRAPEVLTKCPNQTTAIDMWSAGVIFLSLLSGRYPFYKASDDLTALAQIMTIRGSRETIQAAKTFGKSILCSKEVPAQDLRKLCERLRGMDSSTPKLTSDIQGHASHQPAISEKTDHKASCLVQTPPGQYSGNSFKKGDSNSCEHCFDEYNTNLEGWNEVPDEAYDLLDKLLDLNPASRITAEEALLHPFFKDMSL
# Sequence of Aurora kinase B (Q96GD4 whole entry): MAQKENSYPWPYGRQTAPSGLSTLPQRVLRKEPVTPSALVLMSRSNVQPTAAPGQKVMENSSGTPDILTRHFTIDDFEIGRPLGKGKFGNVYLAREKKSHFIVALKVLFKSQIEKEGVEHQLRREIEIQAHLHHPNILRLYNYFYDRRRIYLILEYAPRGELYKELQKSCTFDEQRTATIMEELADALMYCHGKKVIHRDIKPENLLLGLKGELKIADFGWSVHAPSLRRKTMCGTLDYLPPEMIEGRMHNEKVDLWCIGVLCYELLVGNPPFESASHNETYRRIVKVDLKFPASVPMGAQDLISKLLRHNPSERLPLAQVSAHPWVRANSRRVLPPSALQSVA
# Sequence of ALK tyrosine kinase receptor (Q9UM73 whole entry): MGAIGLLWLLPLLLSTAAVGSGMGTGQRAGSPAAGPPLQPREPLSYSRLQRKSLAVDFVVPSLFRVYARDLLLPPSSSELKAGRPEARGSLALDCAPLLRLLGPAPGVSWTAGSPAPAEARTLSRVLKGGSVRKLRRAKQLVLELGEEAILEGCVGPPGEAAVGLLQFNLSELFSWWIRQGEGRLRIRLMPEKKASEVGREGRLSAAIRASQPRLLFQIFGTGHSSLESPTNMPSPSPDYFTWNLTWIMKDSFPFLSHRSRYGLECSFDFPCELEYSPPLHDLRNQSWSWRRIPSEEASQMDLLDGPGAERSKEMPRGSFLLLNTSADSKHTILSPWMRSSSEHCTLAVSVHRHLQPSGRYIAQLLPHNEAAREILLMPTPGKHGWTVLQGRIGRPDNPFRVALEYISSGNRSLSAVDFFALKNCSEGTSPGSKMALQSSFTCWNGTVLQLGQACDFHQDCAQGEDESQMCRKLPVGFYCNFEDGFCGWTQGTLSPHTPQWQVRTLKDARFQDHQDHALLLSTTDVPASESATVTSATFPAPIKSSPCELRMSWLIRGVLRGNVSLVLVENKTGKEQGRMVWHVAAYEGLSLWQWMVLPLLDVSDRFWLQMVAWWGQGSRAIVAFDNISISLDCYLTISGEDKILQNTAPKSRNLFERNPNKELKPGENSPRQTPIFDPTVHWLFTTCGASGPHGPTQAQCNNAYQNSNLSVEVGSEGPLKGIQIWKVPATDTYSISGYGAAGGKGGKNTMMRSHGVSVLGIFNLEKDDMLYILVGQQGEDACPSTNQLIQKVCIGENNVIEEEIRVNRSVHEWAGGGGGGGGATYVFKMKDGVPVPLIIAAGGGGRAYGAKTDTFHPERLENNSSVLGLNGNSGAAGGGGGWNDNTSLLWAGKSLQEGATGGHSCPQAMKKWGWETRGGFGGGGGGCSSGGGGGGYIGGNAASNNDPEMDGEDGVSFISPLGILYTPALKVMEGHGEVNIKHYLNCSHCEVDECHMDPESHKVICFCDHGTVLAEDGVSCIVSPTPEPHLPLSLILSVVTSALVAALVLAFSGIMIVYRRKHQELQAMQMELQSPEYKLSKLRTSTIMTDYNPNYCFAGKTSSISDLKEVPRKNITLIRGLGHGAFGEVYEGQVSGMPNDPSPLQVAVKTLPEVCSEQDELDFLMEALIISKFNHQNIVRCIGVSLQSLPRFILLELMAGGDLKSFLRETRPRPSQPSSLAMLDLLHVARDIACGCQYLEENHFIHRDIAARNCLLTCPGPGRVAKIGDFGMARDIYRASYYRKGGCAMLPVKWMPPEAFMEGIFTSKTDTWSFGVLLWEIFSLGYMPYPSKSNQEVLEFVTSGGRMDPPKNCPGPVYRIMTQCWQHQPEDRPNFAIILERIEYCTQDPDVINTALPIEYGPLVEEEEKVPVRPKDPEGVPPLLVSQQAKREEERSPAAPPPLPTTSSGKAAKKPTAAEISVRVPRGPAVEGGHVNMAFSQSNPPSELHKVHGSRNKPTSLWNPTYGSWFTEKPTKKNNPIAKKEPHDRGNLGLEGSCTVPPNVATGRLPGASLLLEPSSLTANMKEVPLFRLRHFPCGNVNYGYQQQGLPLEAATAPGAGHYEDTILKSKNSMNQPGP
# Sequence of Aurora kinase A (O14965 whole entry): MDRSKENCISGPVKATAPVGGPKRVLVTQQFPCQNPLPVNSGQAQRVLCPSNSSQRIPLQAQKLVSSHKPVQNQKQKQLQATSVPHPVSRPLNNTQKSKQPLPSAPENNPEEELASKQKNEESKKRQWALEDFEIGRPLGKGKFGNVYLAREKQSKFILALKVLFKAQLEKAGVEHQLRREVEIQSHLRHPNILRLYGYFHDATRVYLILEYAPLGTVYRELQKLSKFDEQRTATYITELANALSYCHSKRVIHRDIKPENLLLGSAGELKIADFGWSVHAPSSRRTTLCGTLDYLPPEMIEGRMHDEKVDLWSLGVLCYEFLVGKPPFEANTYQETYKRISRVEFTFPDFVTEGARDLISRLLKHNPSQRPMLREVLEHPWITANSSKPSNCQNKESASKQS
# Sequence of Vascular endothelial growth factor receptor 2 (P35968 whole entry): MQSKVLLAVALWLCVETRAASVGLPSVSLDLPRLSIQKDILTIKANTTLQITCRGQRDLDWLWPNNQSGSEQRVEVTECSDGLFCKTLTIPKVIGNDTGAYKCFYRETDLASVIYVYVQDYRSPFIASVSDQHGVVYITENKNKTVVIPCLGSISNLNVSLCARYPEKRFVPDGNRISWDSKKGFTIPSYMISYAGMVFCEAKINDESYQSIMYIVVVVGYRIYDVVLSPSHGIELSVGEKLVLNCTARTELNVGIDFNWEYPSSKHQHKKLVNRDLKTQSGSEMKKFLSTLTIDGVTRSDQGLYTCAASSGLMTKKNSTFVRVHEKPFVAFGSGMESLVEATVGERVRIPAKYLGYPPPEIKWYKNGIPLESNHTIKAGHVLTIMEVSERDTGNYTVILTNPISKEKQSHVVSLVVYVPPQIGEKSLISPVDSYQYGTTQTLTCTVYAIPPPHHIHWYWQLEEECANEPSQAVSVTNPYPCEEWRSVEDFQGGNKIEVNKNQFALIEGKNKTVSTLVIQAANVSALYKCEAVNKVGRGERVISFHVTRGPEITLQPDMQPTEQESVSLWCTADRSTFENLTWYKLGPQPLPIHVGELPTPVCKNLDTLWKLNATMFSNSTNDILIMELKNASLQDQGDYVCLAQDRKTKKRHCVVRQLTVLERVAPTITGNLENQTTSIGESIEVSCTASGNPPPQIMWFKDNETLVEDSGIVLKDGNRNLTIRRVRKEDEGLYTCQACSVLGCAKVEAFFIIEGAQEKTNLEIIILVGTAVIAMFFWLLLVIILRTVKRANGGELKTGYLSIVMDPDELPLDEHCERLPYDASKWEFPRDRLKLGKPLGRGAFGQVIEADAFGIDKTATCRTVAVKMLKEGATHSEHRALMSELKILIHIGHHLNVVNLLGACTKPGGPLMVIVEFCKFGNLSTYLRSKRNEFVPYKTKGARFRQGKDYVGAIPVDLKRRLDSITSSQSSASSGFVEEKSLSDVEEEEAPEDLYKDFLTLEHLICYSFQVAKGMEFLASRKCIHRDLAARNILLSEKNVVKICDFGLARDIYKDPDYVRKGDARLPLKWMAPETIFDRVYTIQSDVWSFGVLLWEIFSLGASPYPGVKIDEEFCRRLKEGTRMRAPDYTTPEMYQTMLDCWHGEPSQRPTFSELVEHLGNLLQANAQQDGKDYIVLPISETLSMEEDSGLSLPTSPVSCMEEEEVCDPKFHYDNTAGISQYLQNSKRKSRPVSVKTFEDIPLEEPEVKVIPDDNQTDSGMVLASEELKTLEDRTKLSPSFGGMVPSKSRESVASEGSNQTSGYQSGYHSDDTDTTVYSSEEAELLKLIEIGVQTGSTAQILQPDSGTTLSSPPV
smiles,measurement,setting,value
OCCc1ccc(Nc2ncnc3[nH]cc(-c4ccccc4)c23)cc1,Ki,[1],3.98 µM (active)
same,Ki,[2],0.0794 µM (active)
O=C1C(=O)N(Cc2ccc(Cl)c(Cl)c2)c2cc(Cl)ccc21,IC50,[3],53.1 µM (active)
same,IC50,[4],43.4 µM (active)
CS(=O)(=O)Nc1ccc2c(c1)C(=NO)c1ccccc1-2,Ki,[5],0.794 µM (active)
same,Ki,Aurora kinase A,0.398 µM (active)
same,Ki,Aurora kinase B,0.0398 µM (active)
C[C@H](CO)N1C[C@H](C)[C@H](CN(C)S(=O)(=O)c2ccc(F)cc2)Oc2ccc(NC(=O)Cc3cn(C)c4ccccc34)cc2C1=O,AC50,[6],5.29 µM (active)
same,AC50,[7],19.5 µM (active)

# Reference: ChEMBL document CHEMBL1201862, “PubChem BioAssay data set” (2004)
